Conditions: dynamic light scattering

CCOC(C)(C)C [2-ethoxy-2-methylpropane]
Conditions | thermal diffusivity [m2/s]
293.13 K, Liquid | 5.67e-08
303.09 K, Liquid | 5.45e-08
313.21 K, Liquid | 5.16e-08
323.18 K, Liquid | 4.96e-08
333.18 K, Liquid | 4.79e-08
338.25 K, Liquid | 4.7e-08
343.17 K, Liquid | 4.64e-08
348.15 K, Liquid | 4.55e-08
353.08 K, Liquid | 4.49e-08
358.19 K, Liquid | 4.43e-08
363.1 K, Liquid | 4.38e-08
368.12 K, Liquid | 4.33e-08
373.11 K, Liquid | 4.3e-08
378.18 K, Liquid | 4.26e-08
383.14 K, Liquid | 4.2e-08
388.07 K, Liquid | 4.17e-08
393.06 K, Liquid | 4.15e-08
398.17 K, Liquid | 4.1e-08
403.22 K, Liquid | 4.08e-08
408.16 K, Liquid | 4.02e-08
413.1 K, Liquid | 4e-08
418.18 K, Liquid | 3.97e-08
423.09 K, Liquid | 3.95e-08
428.08 K, Liquid | 3.9e-08
433.07 K, Gas | 3.03e-07
433.18 K, Liquid | 3.85e-08
438.17 K, Liquid | 3.82e-08
443.06 K, Liquid | 3.77e-08
443.25 K, Gas | 2.57e-07
448.18 K, Liquid | 3.74e-08
453.13 K, Gas | 2.14e-07
453.18 K, Liquid | 3.68e-08
458.1 K, Liquid | 3.61e-08
463.05 K, Gas | 1.7e-07
463.19 K, Liquid | 3.53e-08
466.12 K, Liquid | 3.5e-08
468.16 K, Gas | 1.5e-07
469.18 K, Liquid | 3.45e-08
472.09 K, Liquid | 3.39e-08
473.25 K, Gas | 1.28e-07
475.06 K, Liquid | 3.33e-08
478.15 K, Liquid | 3.25e-08
478.2 K, Gas | 1.08e-07
481.24 K, Liquid | 3.16e-08
483.18 K, Gas | 8.76e-08
484.23 K, Liquid | 3.05e-08
487.17 K, Liquid | 2.95e-08
488.25 K, Gas | 6.52e-08
490.09 K, Liquid | 2.77e-08
493.14 K, Liquid | 2.63e-08
493.22 K, Gas | 3.68e-08
496.24 K, Liquid | 2.27e-08

Liquid
Conditions | thermal diffusivity [m2/s]
372.96 K, 4000 kPa | 4.4e-08
373.15 K, 7000 kPa | 4.47e-08
373.16 K, 10000 kPa | 4.5e-08
383.18 K, 10000 kPa | 4.45e-08
383.35 K, 7000 kPa | 4.41e-08
383.37 K, 4000 kPa | 4.34e-08
392.97 K, 7000 kPa | 4.35e-08
393 K, 4000 kPa | 4.27e-08
393.05 K, 10000 kPa | 4.4e-08
402.94 K, 4000 kPa | 4.2e-08
402.99 K, 7000 kPa | 4.28e-08
403.09 K, 10000 kPa | 4.35e-08
413.25 K, 10000 kPa | 4.3e-08
413.34 K, 7000 kPa | 4.21e-08
413.35 K, 4000 kPa | 4.12e-08
421.78 K, 4000 kPa | 4.07e-08
421.86 K, 7000 kPa | 4.16e-08
422.25 K, 10000 kPa | 4.24e-08
431.42 K, 4000 kPa | 4e-08
431.52 K, 7000 kPa | 4.1e-08
432.83 K, 10000 kPa | 4.18e-08
442.12 K, 4000 kPa | 3.92e-08
442.19 K, 7000 kPa | 4.04e-08
442.53 K, 10000 kPa | 4.13e-08
452.09 K, 4000 kPa | 3.85e-08
452.26 K, 7000 kPa | 3.98e-08
452.4 K, 10000 kPa | 4.08e-08
462.41 K, 4000 kPa | 3.75e-08
462.47 K, 7000 kPa | 3.92e-08
462.95 K, 10000 kPa | 4.03e-08
472.45 K, 4000 kPa | 3.65e-08
472.63 K, 7000 kPa | 3.87e-08
472.63 K, 10000 kPa | 3.99e-08
478.13 K, 10000 kPa | 3.97e-08
478.14 K, 7000 kPa | 3.84e-08
478.2 K, 4000 kPa | 3.6e-08
482.44 K, 4000 kPa | 3.52e-08
483.15 K, 7000 kPa | 3.82e-08
483.2 K, 10000 kPa | 3.95e-08
488.15 K, 7000 kPa | 3.79e-08
488.65 K, 4000 kPa | 3.44e-08
488.83 K, 10000 kPa | 3.93e-08
493.13 K, 4000 kPa | 3.34e-08
493.16 K, 7000 kPa | 3.77e-08
493.3 K, 10000 kPa | 3.92e-08

CCC(C)(C)OC [2-methoxy-2-methylbutane]
Conditions | thermal diffusivity [m2/s]
291.5 K, Liquid | 6.65e-08
302.19 K, Liquid | 6.36e-08
312.11 K, Liquid | 6.17e-08
323 K, Liquid | 5.95e-08
332.51 K, Liquid | 5.75e-08
342.71 K, Liquid | 5.5e-08
352.32 K, Liquid | 5.33e-08
363.24 K, Liquid | 5.18e-08
373.18 K, Liquid | 5e-08
382.92 K, Liquid | 4.84e-08
388.1 K, Liquid | 4.75e-08
392.6 K, Liquid | 4.68e-08
398.45 K, Liquid | 4.61e-08
402.91 K, Liquid | 4.55e-08
418.23 K, Liquid | 4.36e-08
423 K, Liquid | 4.3e-08
428.55 K, Liquid | 4.24e-08
432.78 K, Liquid | 4.2e-08
438.24 K, Liquid | 4.14e-08
442.67 K, Liquid | 4.1e-08
448.19 K, Liquid | 4.04e-08
453.53 K, Liquid | 3.98e-08
458.62 K, Liquid | 3.95e-08
463.3 K, Liquid | 3.9e-08
468.1 K, Liquid | 3.87e-08
472 K, Liquid | 3.83e-08
477.88 K, Gas | 2.54e-07
478.34 K, Liquid | 3.81e-08
482.92 K, Liquid | 3.78e-08
483.74 K, Gas | 2.3e-07
487.65 K, Gas | 2.13e-07
488.23 K, Liquid | 3.75e-08
492.26 K, Liquid | 3.71e-08
493.04 K, Gas | 1.9e-07
498.77 K, Liquid | 3.63e-08
499.05 K, Gas | 1.63e-07
501.9 K, Liquid | 3.6e-08
502.72 K, Gas | 1.45e-07
504.05 K, Liquid | 3.58e-08
506.94 K, Liquid | 3.52e-08
508.18 K, Gas | 1.21e-07
508.48 K, Liquid | 3.51e-08
511.05 K, Liquid | 3.42e-08
511.38 K, Gas | 1.05e-07
514.02 K, Liquid | 3.36e-08
517.41 K, Gas | 7.83e-08
517.73 K, Liquid | 3.2e-08
519.01 K, Liquid | 3.15e-08
522.19 K, Liquid | 2.98e-08
522.45 K, Gas | 4.2e-08

Liquid
Conditions | thermal diffusivity [m2/s]
373.1 K, 7000 kPa | 5.35e-08
373.11 K, 4000 kPa | 5.2e-08
373.12 K, 10000 kPa | 5.47e-08
382.8 K, 4000 kPa | 5.08e-08
382.83 K, 7000 kPa | 5.23e-08
382.94 K, 10000 kPa | 5.36e-08
392.61 K, 4000 kPa | 4.9e-08
392.63 K, 7000 kPa | 5.09e-08
392.73 K, 10000 kPa | 5.23e-08
402.72 K, 4000 kPa | 4.77e-08
402.77 K, 7000 kPa | 4.93e-08
402.81 K, 10000 kPa | 5.07e-08
412.73 K, 4000 kPa | 4.66e-08
412.76 K, 7000 kPa | 4.81e-08
412.86 K, 10000 kPa | 4.94e-08
422.87 K, 10000 kPa | 4.82e-08
423 K, 4000 kPa | 4.52e-08
423.06 K, 7000 kPa | 4.69e-08
432.66 K, 4000 kPa | 4.42e-08
432.76 K, 7000 kPa | 4.59e-08
432.8 K, 10000 kPa | 4.72e-08
442.61 K, 4000 kPa | 4.31e-08
442.7 K, 7000 kPa | 4.47e-08
442.73 K, 10000 kPa | 4.6e-08
453.25 K, 10000 kPa | 4.51e-08
453.47 K, 4000 kPa | 4.2e-08
453.58 K, 7000 kPa | 4.37e-08
463.14 K, 4000 kPa | 4.14e-08
463.21 K, 7000 kPa | 4.31e-08
463.25 K, 10000 kPa | 4.44e-08
472.15 K, 4000 kPa | 4.08e-08
472.25 K, 7000 kPa | 4.26e-08
472.35 K, 10000 kPa | 4.39e-08
478.13 K, 10000 kPa | 4.36e-08
478.14 K, 7000 kPa | 4.22e-08
478.39 K, 4000 kPa | 4.06e-08
483.16 K, 7000 kPa | 4.19e-08
483.16 K, 10000 kPa | 4.32e-08
483.31 K, 4000 kPa | 4.02e-08
488.17 K, 7000 kPa | 4.16e-08
488.18 K, 10000 kPa | 4.29e-08
488.54 K, 4000 kPa | 3.98e-08
492.58 K, 4000 kPa | 3.96e-08
493.13 K, 7000 kPa | 4.13e-08
493.14 K, 10000 kPa | 4.26e-08
498.16 K, 10000 kPa | 4.22e-08
498.25 K, 7000 kPa | 4.08e-08
499 K, 4000 kPa | 3.9e-08
503.15 K, 10000 kPa | 4.18e-08
503.16 K, 4000 kPa | 3.85e-08
503.2 K, 7000 kPa | 4.04e-08
508.09 K, 7000 kPa | 3.99e-08
508.14 K, 10000 kPa | 4.15e-08
508.25 K, 4000 kPa | 3.8e-08
512.28 K, 4000 kPa | 3.72e-08
512.29 K, 7000 kPa | 3.94e-08
512.53 K, 10000 kPa | 4.12e-08
517.79 K, 4000 kPa | 3.63e-08
517.85 K, 7000 kPa | 3.9e-08
518.05 K, 10000 kPa | 4.08e-08
523.25 K, 4000 kPa | 3.53e-08
523.25 K, 7000 kPa | 3.84e-08
523.25 K, 10000 kPa | 4.05e-08

Cc1ccccc1 [toluene]
Liquid
Conditions | thermal diffusivity [m2/s]
302.9 K | 8.63e-08
312.45 K | 8.33e-08
323.07 K | 8.03e-08
333.27 K | 7.77e-08
343.52 K | 7.52e-08
353.73 K | 7.3e-08
363.73 K | 7.09e-08
373.04 K | 6.9e-08
382.94 K | 6.71e-08
392.88 K | 6.52e-08
402.93 K | 6.33e-08
413.06 K | 6.15e-08
422.73 K | 5.98e-08
432.67 K | 5.81e-08
442.68 K | 5.64e-08
452.96 K | 5.48e-08
462.99 K | 5.33e-08
473.2 K | 5.19e-08
482.98 K | 5.06e-08
493.05 K | 4.94e-08
503.17 K | 4.84e-08
513.41 K | 4.74e-08
523.38 K | 4.66e-08
